Laboratory results from patent US20220259536A1, “MICROCHANNEL CELL CULTURE DEVICE AND SYSTEM” (THE CHARLES STARK DRAPER LABORATORY, INC., priority 2021, published 2022).

Test system: Human renal proximal tubule cells
Assay: optical label-free measurement of cell oxygen consumption in multi-well microfluidic tissue culture device
Type: cell-based
Conditions: human renal proximal tubule cells treated with Oligomycin; static conditions after turning off pumps; FIG. 15B, varying drug concentrations
Text: An optical luminescence-based oxygen sensing system was integrated with an existing multi-well microfluidic tissue culture device, for label-free oxygen monitoring (FIG. 13). Sensor spots having a diameter of 0.75 mm were cut with a biopsy punch from a sheet of photosensitive film (PyroScience) and bonded with 184 Sylgard silicone adhesive to the center floor of each basal channel. The photosensitive sensor spot was located about 200 μm from the tissue layer on the surface of bottom channel. A FireStingO2 optical oxygen meter (PyroScience) with a 2 m fiber optic cable (external to channel) was used to monitor oxygen in each device. For oxygen measurements, the device was placed in an incubated confocal microscope (Zeiss Inc., Oberkochen, Germany) and the fiber optic was secured below the microscope stage. The stage was programmed to align the fiber optic with each sensor for oxygen monitoring in all 96 tissue modeling environments. A 2-point calibration of the FireStingO2 system was performed using devices filled with air saturated PBS and a 0% oxygen solution (30 g/L sodium sulfite in water). […] Tissue oxygen consumption was measured for the human renal proximal tubule cells by cycling the pumps carrying oxygen rich fluid on and off (FIG. 14). As shown in the graph of FIG. 14, under static conditions, cell oxygen consumption was measured immediately upon turning off fluid pumps.

CC[C@H]1/C=C/C=C/C[C@@H](C)[C@H](O)[C@@](C)(O)C(=O)[C@@H](C)[C@H](O)[C@@H](C)C(=O)[C@@H](C)[C@H](O)[C@@H](C)/C=C/C(=O)O[C@@H]2[C@H](C)[C@H](CC1)O[C@]1(CC[C@H](C)[C@H](C[C@@H](C)O)O1)[C@H]2C [Oligomycin] was tested, and the “cell oxygen consumption rate” value was “significant decrease”.
